This test deals with mesenchymal stem cells. Description: Phalloidin (F-actin) / alpha-SMA staining of treated mesenchymal stem cells. It counts as cell-based, human. The conditions noted are these: 1 μM. The procedure: Bone Marrow Derived Mesenchymal Stem Cells, human (BM-MSC, ATCC PCS-500-012) were cultured in medium composed of Mesenchymal Stem Cell Basal Medium foe Adipose, Umbilcal and Bone Marrow-derived MSCs (ATCC PCS-400030 and Mesenchymal Stem Cell Growth for Bone Marrow-derived MSCs (ATCC PCS-500-041). Cells were seeded at a density of 15,000 cells/well in a 96-well format.
To induce fibrogenic differentiation BM-MSCs were cultured in a medium composed by Dulbecco's Modified Eagle Medium, 2% horse serum (HS) (Sigma H1270) and 5-10 ng/ml TGF-beta-1 (PreproTech 100-21). Cells were cultured in basal media for 2 days before being switched to fibrogenic differentiation media for 5 days, after which they were taken down for downstream assays. Compound treatment was added when media was switched to fibrogenic differentiation media, cells were treated with 0.1% DMSO if not receiving compound.
Cells were fixed in 4% PFA for 10 min at RT. Fixed cells were washed three times in 1×PBS and incubated in permeabilization solution (0.5% Triton X-100 in 1×PBS) for 10 min. Unspecific binding were saturated by incubating samples in blocking solution (5% donkey serum in 1×PBS) for 1 h. The cells were incubated at RT for 1 hour with gentle shaking in the presence of primary antibody against, alpha-smooth muscle actin (1:1000, Sigma™ A5228). The cells were washed three times with 0.05% Tween-20 in 1×PBS and incubated, for 1 hour at RT, with host-specific secondary antibodies in addition to counterstaining for Alexa Fluor Plus 750 Phalloidin (1:2000, Invitrogen™, A30105) and DAPI (1:2000). Primary and secondary antibodies were diluted according to the manufacturer's recommendations in blocking solution+0.1% Triton X-100. Finally, the cells were washed three times with 0.05% Tween-20 in 1×PBS, washed twice with 1×PBS and stored at 4° C. Images were acquired on a Thermo Scientific™ CellInsight™ CX7LED high content analysis (HCA) imaging instrument using a 10× objective. Nine fields per well were captured for quantification.

The record followed here is US20250223560A1, “NOX4 INHIBITOR COMPOSITIONS AND METHODS FOR REGENERATION OF DYSTROPHIC MUSCLE” (FULCRUM THERAPEUTICS, INC., priority 2022, published 2025).

`CN(C)c1cccc(-c2c3c(=O)n(-c4ccccc4Cl)[nH]c3cc(=O)n2C)c1` [FTX1620, Setanaxib]: the “phalloidin (F-actin) staining” value was “significant phalloidin staining”. Besides, the “α-SMA immunofluorescence and phalloidin (F-actin) staining” value (FIG. 15) was “exhibited both α-SMA immunofluorescence and phalloidin (F-actin) staining”.
